Measurements taken from patent publication US8541584B2, “3-(1,2,3-triazol-4-yl) pyrrolo [2,3-b] pyridine derivatives” (Merck Patent GmbH, priority 2009, dated 2013).

What was measured:
Type in all cases: biochemical
[1] = biological target: T1, IKKε (Homo sapiens, UniProt Q14164); assay: IKKε kinase test (384-well flashplate); conditions: 1 nM IKKε, 10 μM ATP, 30° C., 120 min; read-out: IC50 [IKKepsilon]
T1 sequence (Q14164 1-716): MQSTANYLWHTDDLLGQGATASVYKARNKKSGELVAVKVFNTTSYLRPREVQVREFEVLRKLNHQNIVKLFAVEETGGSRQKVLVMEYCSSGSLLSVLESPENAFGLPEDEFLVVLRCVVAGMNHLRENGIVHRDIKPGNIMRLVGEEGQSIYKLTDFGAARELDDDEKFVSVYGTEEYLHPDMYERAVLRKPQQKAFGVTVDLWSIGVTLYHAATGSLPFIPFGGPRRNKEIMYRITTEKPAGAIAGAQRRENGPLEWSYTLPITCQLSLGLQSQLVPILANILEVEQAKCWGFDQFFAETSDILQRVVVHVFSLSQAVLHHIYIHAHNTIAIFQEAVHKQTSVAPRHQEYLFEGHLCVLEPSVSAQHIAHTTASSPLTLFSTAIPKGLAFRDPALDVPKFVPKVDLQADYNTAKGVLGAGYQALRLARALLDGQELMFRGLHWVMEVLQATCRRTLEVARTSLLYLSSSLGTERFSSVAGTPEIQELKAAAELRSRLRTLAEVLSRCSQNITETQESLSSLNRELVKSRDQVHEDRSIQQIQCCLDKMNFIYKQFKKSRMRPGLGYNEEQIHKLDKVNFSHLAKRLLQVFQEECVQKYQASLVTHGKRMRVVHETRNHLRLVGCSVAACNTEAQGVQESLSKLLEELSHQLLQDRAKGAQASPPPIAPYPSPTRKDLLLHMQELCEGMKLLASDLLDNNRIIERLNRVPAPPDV
Experimental: IKKε—Kinase Test (IKKepsilon)
The kinase assay is performed as 384-well flashplate assay.
1 nM IKKε, 800 nM biotinylated IκBα(19-42) peptide (biotin-C6-C6-[…]) and 10 μM ATP (with 0.3 μCi of ^33P-ATP/well) are incubated in a total volume of 50 μl (10 mM MOPS, 10 mM magnesium acetate, 0.1 mM EGTA, 1 mM dithiothreitol, 0.02% of Brij35, 0.1% of BSA, 0.1% of BioStab, pH 7.5) with or without test substance at 30° C. for 120 min. The reaction is stopped using 25 μl of 200 mM EDTA solution, filtered off with suction after 30 min at room temperature, and the wells are washed 3 times with 100 μl of 0.9% NaCl solution. The non-specific proportion of the kinase reaction (blank) is determined using 3 μM EMD 1126352 (BX-795). Radioactivity is measured in the Topcount. IC50 values are calculated using RS1.

[2] = biological target: T2, TANK binding kinase (TBK1) (Homo sapiens, UniProt Q9UHD2); assay: TBK1 kinase test (384-well flashplate); conditions: 0.6 nM TBK1, 10 μM ATP, 30° C., 120 min
T2 sequence (Q9UHD2 1-729): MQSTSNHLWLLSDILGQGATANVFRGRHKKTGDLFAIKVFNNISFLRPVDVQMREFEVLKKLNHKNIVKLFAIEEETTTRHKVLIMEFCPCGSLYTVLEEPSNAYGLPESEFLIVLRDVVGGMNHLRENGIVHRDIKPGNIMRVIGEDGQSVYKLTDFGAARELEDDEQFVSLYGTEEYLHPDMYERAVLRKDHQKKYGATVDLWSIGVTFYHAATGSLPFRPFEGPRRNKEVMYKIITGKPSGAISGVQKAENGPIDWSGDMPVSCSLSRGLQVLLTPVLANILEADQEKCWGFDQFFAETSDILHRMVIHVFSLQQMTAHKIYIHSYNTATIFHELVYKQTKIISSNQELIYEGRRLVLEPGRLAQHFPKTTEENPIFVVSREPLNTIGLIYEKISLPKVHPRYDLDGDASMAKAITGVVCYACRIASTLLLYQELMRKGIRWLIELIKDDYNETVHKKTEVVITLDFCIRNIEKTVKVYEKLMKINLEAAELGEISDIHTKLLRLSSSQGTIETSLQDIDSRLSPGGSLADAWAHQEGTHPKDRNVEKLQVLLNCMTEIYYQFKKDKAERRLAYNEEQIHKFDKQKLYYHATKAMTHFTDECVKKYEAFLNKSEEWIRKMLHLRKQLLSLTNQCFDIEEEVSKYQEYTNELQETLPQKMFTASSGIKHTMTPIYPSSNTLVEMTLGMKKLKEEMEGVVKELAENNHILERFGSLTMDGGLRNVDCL
Experimental: The kinase assay is performed as 384-well flashplate assay. 0.6 nM TANK binding kinase (TBK1), 800 nM biotinylated MELK-derived peptide (biotin-Ah-Ah-[…]) and 10 μM ATP (with 0.25 μCi of ^33P-ATP/well) are incubated in a total volume of 50 μl (10 mM MOPS, 10 mM magnesium acetate, 0.1 mM EGTA, 1 mM DTT, 0.02% of Brij35, 0.1% of BSA, pH 7.5) with or without test substance at 30° C. for 120 min. The reaction is stopped using 25 μl of 200 mM EDTA solution, filtered off with suction after 30 min at room temperature, and the wells are washed 3 times with 100 μl of 0.9% NaCl solution. The non-specific proportion of the kinase reaction (blank) is determined using 100 nM staurosporine. Radioactivity is measured in the Topcount. IC50 values are calculated using RS1.

[3] = biological target: T3, PDK1 (Homo sapiens, UniProt O15530); assay: Test for the inhibition of PDK1 (384-well flashplate, 33P-ATP); conditions: His6-PDK1 3.4 nM, 4 μM ATP, 30° C., 60 min
T3 construct: His6 (N)
T3 sequence (O15530 51-556 limits assumed): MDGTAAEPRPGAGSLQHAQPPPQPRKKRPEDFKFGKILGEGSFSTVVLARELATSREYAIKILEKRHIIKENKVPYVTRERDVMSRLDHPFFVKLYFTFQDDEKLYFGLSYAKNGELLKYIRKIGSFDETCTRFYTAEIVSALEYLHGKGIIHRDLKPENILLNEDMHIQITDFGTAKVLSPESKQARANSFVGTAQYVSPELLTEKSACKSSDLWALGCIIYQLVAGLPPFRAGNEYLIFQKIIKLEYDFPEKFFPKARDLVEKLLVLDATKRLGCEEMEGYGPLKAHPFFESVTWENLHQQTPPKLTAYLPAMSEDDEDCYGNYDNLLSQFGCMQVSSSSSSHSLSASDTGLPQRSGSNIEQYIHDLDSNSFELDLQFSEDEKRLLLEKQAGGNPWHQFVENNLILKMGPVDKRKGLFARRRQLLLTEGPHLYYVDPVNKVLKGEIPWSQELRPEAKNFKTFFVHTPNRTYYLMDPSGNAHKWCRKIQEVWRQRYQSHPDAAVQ
Experimental: 4.0 Test for the Inhibition of PDK1
The experimental batches are carried out in a flashplate system with 384 wells/microtitration plate.
In each case, the PDK1 sample His6-PDK1(1-50)(3.4 nM), the PDK1 substrate biotin-bA-bA-[…] (400 nM), 4 μM ATP (with 0.2 μCi of ^33P-ATP/well) and the test substance in 50 μl of conventional experimental solution per well are incubated at 30° C. for 60 min. The test substances are employed in corresponding concentrations (if desired in a dilution series). The control is carried out without test substance. The reaction is stopped using standard methods and washed. The activity of the kinase is measured via the incorporated radioactivity in top count. In order to determine the non-specific kinase reaction (blank value), the experimental batches are carried out in the presence of 100 nM staurosporin.
The radioactivity (decompositions per minute) of the blank value (no use of test substance in the presence of staurosporin) is subtracted from all other radioactivity values. The controls (kinase activity without test substance) are set equal to 100 percent and all other radioactivity values (after subtracting the blank value) are expressed set in relation thereto (for example in % of the control).
IC50 values (50% inhibition) are determined with the aid of statistics programmes, such as, for example, RS1.

Measured: IC50

Cn1cc(-c2cnc3[nH]cc(-c4cn(CCN5CCOCC5)nn4)c3c2)cn1 [Compound A18, 5-(1-Methyl-1H-pyrazol-4-yl)-3-[1-(2-morpholin-4-ylethyl)-1H-1,2,3-triazol-4-yl]-1H-pyrrolo[2,3-b]pyridine]
0.5 to 1000 nM: all assays above

Cn1cc(-c2cnc3[nH]cc(-c4cn(CCc5ccccc5)nn4)c3c2)cn1 [Compound A16, 5-(1-Methyl-1H-pyrazol-4-yl)-3-(1-phenethyl-1H-1,2,3-triazol-4-yl)-1H-pyrrolo[2,3-b]-pyridine]
0.5 to 1000 nM: all assays above
